“Also recorded” adds a separate entry of the source. Like-named read-outs stand apart in the source and are kept apart here.
Legend:
[1] = cited from earlier work
APP = test: Western blot of APP and APP C-terminal fragments in brain extracts of 3xTg-AD mice; assay type: in vivo, mouse; conditions: 5 mg/kg/day
Experimental: To attempt to determine at what part in the Aβ processing/release pathway ST101 may be active, a series of Western blot analyses of brain extracts from the same mice were conducted. These Westerns blots examined intact APP as well as products of its post-translational processing and subsequent degradation.
FIG. 4 is a Western blot that depicts APP C-terminal fragments detected by antibody CT20 in the brains of ST101-treated (S) 3xTg-AD mice, relative to untreated (C) 3xTg mice-AD.
FIG. 5 is a Western blot that depicts APP and degradation fragments detected by antibody CT20 in the brains of ST101-treated (S) 3xTg-AD mice, relative to untreated (C) 3xTg-AD mice. “CT20” stands for full length APP species, and “Actin” stands for anti-beta-actin antibody as a protein loading control.
FIGS. 10A and 10B are Western blots that depict APP carboxy-terminal fragments detected by antibody CT20 in the brains of ST101-treated (T in FIG. 10A, S in FIG. 10B) 3xTg-AD mice, relative to untreated (C) 3xTg-AD mice. FIG. 10B is from a separate experiment that used the same brain extract used in the experiment for FIG. 10A. Animals were approximately 14.5 months old at sacrifice after 2.5 months of treatment with ST101 at 5 mg/kg/day in drinking water. * denotes a control animal with low levels of CTFs.
FIGS. 10C and 10D are Western blots that depict APP carboxy-terminal fragments detected by an APP C-terminal antibody (Eptitomics #: 15654-1) in the brains of ST101-treated (S) 3xTg-AD mice, relative to untreated (C) 3xTg-AD mice. FIG. 10D is a lighter exposure of the Western blot in FIG. 10C. Animals were approximately 14.5 months old at sacrifice after 2.5 months of treatment with ST101 at 5 mg/kg/day in drinking water.

ADAM10 = test: Western blot of ADAM10 in brain extracts of 3xTg-AD mice; assay type: in vivo, mouse; conditions: 12-month-old 3xTg-AD mice, 5 mg/kg/day, 2 months
Experimental: (§1) APP C-terminal fragments C99 and C83 are created by beta-secretase and alpha-secretase cleavage respectively. The reduction of both C99 and C83 induced by ST101 could therefore be due to reduction or inhibition of secretases. This hypothesis was tested using Western blots of brain extracts from 3xTg-AD mice from the initial experiment in 12-month-old animals treated with ST101 for 2 months. The only beta-secretase is BACE1 and the constitutive alpha-secretase is ADAM10.
(§2) Western blots were probed with antibodies against BACE1 and ADAM10. FIG. 11A is a series of Western blots depicting levels of proADAM10, ADAM10, proBACE, BACE, Presenilin1 and APP-CFTs in brain extracts from ST101 treated 3xTG-AD mice (S) versus control mice (C). C: control brain extract. S: ST101-treated brain extract. Animals were approximately 12 months old at sacrifice after 2 months of treatment with ST101 at 5 mg/kg/day.
(§3) FIG. 11B depicts quantification of the Western blot bands from FIG. 11A by densitometry.

[2] = in vivo
From the text: (§4) On the surface, reduction of alpha-secretase cleavage could be considered an undesirable effect as alpha-secretase cleaves multiple other substrates. Thus, one could hypothesize that reduction of alpha-secretase might cause toxicity. However, ST101 has been proven safe in rodent and monkey toxicity studies of up to 6 months at doses up to approximately 100-fold higher than the ones used in the 3xTg-AD mice. […] This may be due to an incomplete effect of ST101 on alpha-secretases or due to activity of other alpha-secretases compensating for a major effect of ST101 on ADAM10.

SAMP8 mouse = conditions: cited from earlier work
Aβ1-40 = test: Aβ in brain tissue from cynomolgus monkeys; assay type: in vivo; conditions: juvenile cynomolgus monkeys, 10 mg/kg/day by naso-gastric tube, 6 months
Experimental: (§5) Brain samples from cynomolgus monkeys were obtained at the conclusion of a six-month chronic toxicity study. The cynomolgus monkeys used in this study were juveniles of less than 4 years of age. ST101 was administered daily for 6 months by naso-gastric tube at 10 mg/kg/day (n=8 per group). Data was generated from 8 treated and 8 control animals. Levels of Aβ1-40 are shown in FIG. 9, which is a bar graph that depicts the effect of ST 101 on Aβ in brain tissue from cynomolgus monkeys. FIG. 9 depicts the amount of levels of Aβ1-40 in monkeys treated with ST 101, relative to control monkeys.

tau [3] = test: Western blot of tau and phosphorylated tau in brain extracts of 3xTg-AD mice; assay type: in vivo, mouse; conditions: overexposed blot, 12-month-old 3xTg-AD mice, 5 mg/kg/day, 2 months
From the text: The status of tau phosphorylation, accumulation and degradation can be assessed in Western blots. Two anti-tau antibodies, directed against non-phosphorylated and phosphorylated tau, were used to probe brain extracts from the initial experiment. FIG. 12 is a series of Western blots depicting levels of full-length tau, tau accumulates, tau degradation products and phosphorylated tau levels in brain extracts from ST101 treated 3xTG-AD mice (S) versus control mice (C). Beta actin levels (Ac) were used as a loading control. P-tau, two panels per antibody: top—normal exposure; bottom—overexposure to visualize minor protein bands. Ac: beta actin antibody as protein loading control. Animals were approximately 12 months old at sacrifice after 2 months of treatment with ST101 at 5 mg/kg/day.

[4] = cited from earlier work; remark: listed apart in the source
tau [5] = test: Tau immunohistochemistry with H7 anti-tau antibody in 3xTg-AD mice; assay type: in vivo, mouse
From the text: The 3xTg-AD mouse model incorporates both pathological hallmarks of Alzheimer's disease: Aβ amyloid plaques and neurofibrillary tangles. Neurofibrillary tangles consist of accumulates of abnormally phosphorylated tau protein. In the 3xTg-AD mice pathological somato-dendritic accumulation of tau can be seen in immunohistochemistry as part of the disease model phenotype.
ST101 effects on tau distribution and accumulation were explored in immunohistochemistry with H7 anti-tau antibody.

BACE1 = test: Western blot of BACE in brain extracts of 3xTg-AD mice; assay type: in vivo, mouse; conditions: 12-month-old 3xTg-AD mice, 5 mg/kg/day, 2 months
Experimental: as §1, §2, §3

3xTg-AD mice = test: Morris water maze in 3xTg-AD mice; assay type: in vivo, mouse; conditions: 2 months
Experimental: 3xTg-AD mice of approximately one year of age were treated for 2 months with ST101. An average dose of 5 mg/kg/day was administered in drinking water (calculated dose, based on mean water consumption). Behavioral effects were tested by assessing performance on the Morris Water Maze. Biochemical effects were examined by measuring brain content of Aβ and APP by ELISA and Western Blot.
Behavioral Effects: Performance of 3xTg-AD Mice in the Morris Water Maze (MWM), adapted from Roozendaal et al., Proc. Natl. Acad. Sci. U.S.A. 100: 1328-1333 (2003).
The MWM tests both spatial memory (i.e. hippocampus dependent) and cued learning (i.e. non-hippocampal) in rodents. The maze is a circular tank filled with opaque water. Mice are placed in the water and must swim to find and escape onto a platform submerged 1.5 cm beneath the surface of the water. The time (in seconds) required to find the platform is recorded. Animals rely on visual cues in the room containing the tank in order to find the platform on successive challenges. Training was conducted daily for seven consecutive days.
Retention of training was assessed twice, 24 and 72 hours after the final training trial. Animals were subjected to a 60-second free swim in the tank with the platform removed. Parameters measured included (1) latency: time required to reach the former platform location and (2) crosses: the number of times the animal swam across the former platform location.

sAPP-beta = test: Western blot of sAPP-beta in brain extracts of 3xTg-AD mice; assay type: in vivo, mouse; conditions: 14.5-month-old 3xTg-AD mice, 2 months of treatment, 5 mg/kg/day in drinking water
Experimental: FIG. 10B describes a reduction of fragment C99. C99 is created by BACE cleavage which leads to release of soluble APP, specifically sAPP-beta. […] The Western blot was obtained using an sAPP-beta specific antibody in brain extracts from ST101 treated 3xTG-AD mice (S) versus control mice (C). Animals were approximately 14.5 months old at sacrifice after 2 months of treatment with ST101 at 5 mg/kg/day in drinking water.

Neuro2a cells = test: Aβ production by Neuro2a cultured cells, ELISA of culture medium; assay type: cell-based, murine; conditions: 24 hours of treatment, vs control
Experimental: Neuro2a is a murine neuroblastoma cell line that is known to produce amyloid peptides Aβ1-40 and Aβ1-42 in amounts measurable by ELISA assays. These forms of Aβ have been correlated with the pathology in AD brain and Aβ1-42 in particular is postulated to have the ability to block α7 nicotinic receptors and to produce direct neurotoxic effects. Neuro2a cells were treated for 24 hours with ST101 added to the tissue culture medium. Tissue culture medium was collected and analyzed by ELISA for the presence of Aβ.
FIGS. 1A and 1B are bar graphs that depict the effect of the compound ST101 on Aβ production by Neuro2a cells. FIG. 1A is a bar graph that depicts the Aβ concentration in the cell culture medium as a function of ST101 concentration compared to control. FIG. 1B a bar graph that depicts the ratio of Aβ1-42 to Aβ1-40 as a function of ST101 concentration compared to control.

Monkey toxicity studies = assay type: in vivo; conditions: up to 6 months, doses up to approximately 100-fold higher than in 3xTg-AD mice
Experimental: as §5, §4

ADAM17 (TACE) = test: Western blot of TACE in brain extracts of 3xTg-AD mice; assay type: in vivo, mouse; conditions: 14.5-month-old 3xTg-AD mice, 2 months of treatment, 5 mg/kg/day in drinking water
Experimental: In addition to ADAM10, ADAM17 (TACE, which is Tumor Necrosis Factor converting enzyme) is known to act as an alpha-secretase of APP. Thus, it was tested in a Western blot whether ST101 reduces levels of ADAM17 (TACE).
The Western blot was obtained using a TACE specific antibody in brain extracts from ST101 treated 3xTG-AD mice (S) versus control mice (C). Animals were approximately 14.5 months old at sacrifice after 2 months of treatment with ST101 at 5 mg/kg/day in drinking water.

Presenilin 1 = test: Western blot of Presenilin 1 in brain extracts of 3xTg-AD mice; assay type: in vivo, mouse; conditions: 12-month-old 3xTg-AD mice, 5 mg/kg/day, 2 months
Experimental: as §2, §3

[6] = 14.5-month-old 3xTg-AD mice, 2.5 months
[7] = antibody CT20, 12-month-old 3xTg-AD mice, 2 months
[8] = 24 and 72 hours after final training, 5 mg/kg/day

O=C1N=C2C=CC=CN2C12Cc1ccccc1C2 [ST101, spiro(imidazo(1,2-a)pyridin-2(3H)-one-3,2′-indan)]
extracellular ACh concentrations ([1]; cerebral cortex): increases
extracellular concentrations of both ACh and dopamine ([1]; hippocampus): increases
nicotine-stimulated release of acetylcholine (ACh) ([1]; in vivo): potentiates
17 kDa fragment (APP; [6]): lack of detection
C99 fragment (APP; [6]): much more pronounced; also recorded: reduction
C83 fragment (APP; 14.5-month-old 3xTg-AD mice, 2.5 months, compared with 12-month-old mice): not reduced to the same degree
C83 C-terminal APP fragment (APP; [7]): substantial decrease
C99 C-terminal APP fragment (APP; [7]): substantial decrease
major APP degradation intermediate (~50 kDa) (APP; [7]): disappearance or significant reduction
molecular weight of full-length APP species (APP; [7]): slightly lowered molecular weight of some full-length species
novel C-terminal APP fragment of about 17 kDa (APP; [7]): appearance
APP CTFs (APP; antibody CT20, 14.5-month-old 3xTg-AD mice, 2.5 months): significant effect of reduction
ADAM-10 protein level (ADAM10): not significantly affected
pro-ADAM10 protein level (ADAM10): profound reduction
safety in toxicity studies [2]: proven safe
accumulation of Aβ-like deposits in brain tissue (SAMP8 mouse): decreased accumulation
learning and memory functions (SAMP8 mouse): improvement
Aβ1-40 in brain (Aβ1-40): reduction of Aβ1-40 in animals treated with ST101 that did not reach statistical significance
accumulated tau and degradation products (tau [3]; H7 antibody): disappearance of accumulated tau and degradation products
phosphorylated tau degradation product (tau [3]; R-p-tau antibody): appearance of a new phosphorylated tau degradation product
memory deficits induced by chemical amnesic agents ([4]; methamphetamine, MK-801, scopolamine): attenuates
age-impaired memory ([4]; rodent models): significantly improves
neuronal loss, Hematoxylin/Eosin stained control sections (tau [5]): no neuronal loss
pathological somato-dendritic tau staining (tau [5]; hippocampus, H7 anti-tau antibody): clear reduction
BACE protein level (BACE1): profound reduction
Pro-BACE protein level (BACE1): not significantly affected
latency on successive days of the training (3xTg-AD mice; 3xTg-AD mice approx. one year old, 5 mg/kg/day in drinking water, vs control): greater reductions in latency
learning and memory performance (3xTg-AD mice; 3xTg-AD mouse strain, 5 mg/kg/day): improves learning and memory performance
crosses during retention testing (3xTg-AD mice; [8]): increases in crosses
latency during retention testing (3xTg-AD mice; [8]): reductions in latency
sAPP-beta level (sAPP-beta): concomitant reduction
Aβ1-40 in cell culture medium (Neuro2a cells): without major effects
Aβ1-42 in cell culture medium (Neuro2a cells): significantly reduced
safety in toxicity studies (Monkey toxicity studies): proven safe
TACE level (ADAM17 (TACE)): reduction of TACE levels in the majority of ST101 treated animals
Presenilin 1 level (Presenilin 1): did not show significant changes
